{"source": "paper PMC7351026", "about": "“Serum Half-Lives for Short- and Long-Chain Perfluoroalkyl Acids after Ceasing Exposure from Drinking Water Contaminated by Firefighting Foam” (Environmental Health Perspectives, 2020)", "key": {"[1]": {"assay": "Individual serum elimination rate and half-life (linear regression per employee)", "conditions": "individual estimate", "in_short": "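Log-transformed serum PFAS concentrations regressed on days since clean bottled water supply, per employee, assuming one-compartment first-order elimination. Individual k taken as −β (negative slope); half-life as ln2/k for each PFAS. No half-life calculated when β was positive.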"}, "[2]": {"assay": "PFAS levels in serum samples of airport employees (LC/MS/MS)", "in_short": "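Serum from airport employees, drawn after contaminated drinking-water exposure ended, up to five monthly rounds, all reanalyzed in one batch. 25 μL serum precipitated with acetonitrile/methanol plus labeled internal standards; LC/MS/MS on BEH C18 with ammonium acetate/methanol gradient, calibrants prepared in FBS.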"}, "[3]": {"conditions": "1st sampling (September 2018), count 17"}, "[4]": {"conditions": "2nd sampling (October 2018), count 17"}, "[5]": {"conditions": "3rd sampling (November, 2018), count 17"}, "[6]": {"conditions": "4th sampling (December 2018), count 16"}, "[7]": {"conditions": "5th sampling (January 2019), count 16"}, "[8]": {"conditions": "first serum samples, all 26 airport employees"}, "[9]": {"conditions": "median of first serum samples, all 26 airport employees"}}, "data": [{"compound": "O=S(=O)(O)C(F)(F)C(F)(F)C(F)(F)C(F)(F)C(F)(F)F", "note": "[PFPeS, perfluoropentane sulfonic acid]", "values": [{"measurement": "Elimination rate", "setting": "[1]; subject 1, 5 samples", "value": 0.7, "unit": "yearly"}, {"measurement": "HL (half-life)", "setting": "[1]; subject 1, 5 samples", "value": 1.0, "unit": "year"}, {"measurement": "Elimination rate", "setting": "[1]; subject 2, 5 samples", "value": 0.6, "unit": "yearly"}, {"measurement": "HL (half-life)", "setting": "[1]; subject 2, 5 samples", "value": 1.2, "unit": "year"}, {"measurement": "Elimination rate", "setting": "[1]; subject 3, 5 samples", "value": 0.7, "unit": "yearly"}, {"measurement": "HL (half-life)", "setting": "[1]; subject 3, 5 samples", "value": 0.9, "unit": "year"}, {"measurement": "Elimination rate", "setting": "[1]; subject 4, 5 samples", "value": 0.8, "unit": "yearly"}, {"measurement": "HL (half-life)", "setting": "[1]; subject 4, 5 samples", "value": 0.8, "unit": "year"}, {"measurement": "Elimination rate", "setting": "[1]; subject 5, 5 samples", "value": 0.4, "unit": "yearly"}, {"measurement": "HL (half-life)", "setting": "[1]; subject 5, 5 samples", "value": 1.7, "unit": "year"}, {"measurement": "Elimination rate", "setting": "[1]; subject 6, 4 samples", "value": 0.9, "unit": "yearly"}, {"measurement": "HL (half-life)", "setting": "[1]; subject 6, 4 samples", "value": 0.7, "unit": "year"}, {"measurement": "Elimination rate", "setting": "[1]; subject 7, 5 samples", "value": 0.7, "unit": "yearly"}, {"measurement": "HL (half-life)", "setting": "[1]; subject 7, 5 samples", "value": 0.9, "unit": "year"}, {"measurement": "Elimination rate", "setting": "[1]; subject 8, 5 samples", "value": 0.5, "unit": "yearly"}, {"measurement": "HL (half-life)", "setting": "[1]; subject 8, 5 samples", "value": 1.4, "unit": "year"}, {"measurement": "Elimination rate", "setting": "[1]; subject 9, 5 samples", "value": 0.7, "unit": "yearly"}, {"measurement": "HL (half-life)", "setting": "[1]; subject 9, 5 samples", "value": 1.0, "unit": "year"}, {"measurement": "Elimination rate", "setting": "[1]; subject 10, 5 samples", "value": 0.6, "unit": "yearly"}, {"measurement": "HL (half-life)", "setting": "[1]; subject 10, 5 samples", "value": 1.2, "unit": "year"}, {"measurement": "Elimination rate", "setting": "[1]; subject 11, 5 samples", "value": 2.0, "unit": "yearly"}, {"measurement": "HL (half-life)", "setting": "[1]; subject 11, 5 samples", "value": 0.3, "unit": "year"}, {"measurement": "Elimination rate", "setting": "[1]; subject 12, 5 samples", "value": 1.1, "unit": "yearly"}, {"measurement": "HL (half-life)", "setting": "[1]; subject 12, 5 samples", "value": 0.6, "unit": "year"}, {"measurement": "Elimination rate", "setting": "[1]; subject 13, 5 samples", "value": 0.8, "unit": "yearly"}, {"measurement": "HL (half-life)", "setting": "[1]; subject 13, 5 samples", "value": 0.9, "unit": "year"}, {"measurement": "Elimination rate", "setting": "[1]; subject 14, 4 samples", "value": 1.2, "unit": "yearly"}, {"measurement": "HL (half-life)", "setting": "[1]; subject 14, 4 samples", "value": 0.6, "unit": "year"}, {"measurement": "Elimination rate", "setting": "[1]; subject 15, 5 samples", "value": 2.5, "unit": "yearly"}, {"measurement": "HL (half-life)", "setting": "[1]; subject 15, 5 samples", "value": 0.3, "unit": "year"}, {"measurement": "Elimination rate", "setting": "[1]; subject 16, 5 samples", "value": 0.4, "unit": "yearly"}, {"measurement": "HL (half-life)", "setting": "[1]; subject 16, 5 samples", "value": 1.6, "unit": "year"}, {"measurement": "Elimination rate", "setting": "[1]; subject 17, 5 samples", "value": 2.4, "unit": "yearly"}, {"measurement": "HL (half-life)", "setting": "[1]; subject 17, 5 samples", "value": 0.3, "unit": "year"}, {"measurement": "Serum PFAS level, 25 percentile", "setting": "[2]; [3]", "value": 5.8}, {"measurement": "Serum PFAS level, 75 percentile", "setting": "[2]; [3]", "value": 13}, {"measurement": "Serum PFAS level, Max", "setting": "[2]; [3]", "value": 17}, {"measurement": "Serum PFAS level, Median", "setting": "[2]; [3]", "value": 7.6}, {"measurement": "Serum PFAS level, Min", "setting": "[2]; [3]", "value": 3.6}, {"measurement": "Serum PFAS level, 25 percentile", "setting": "[2]; [4]", "value": 4.9}, {"measurement": "Serum PFAS level, 75 percentile", "setting": "[2]; [4]", "value": 11}, {"measurement": "Serum PFAS level, Max", "setting": "[2]; [4]", "value": 14}, {"measurement": "Serum PFAS level, Median", "setting": "[2]; [4]", "value": 6.8}, {"measurement": "Serum PFAS level, Min", "setting": "[2]; [4]", "value": 2.3}, {"measurement": "Serum PFAS level, 25 percentile", "setting": "[2]; [5]", "value": 4.4}, {"measurement": "Serum PFAS level, 75 percentile", "setting": "[2]; [5]", "value": 11}, {"measurement": "Serum PFAS level, Max", "setting": "[2]; [5]", "value": 14}, {"measurement": "Serum PFAS level, Median", "setting": "[2]; [5]", "value": 6.3}, {"measurement": "Serum PFAS level, Min", "setting": "[2]; [5]", "value": 2.1}, {"measurement": "Serum PFAS level, 25 percentile", "setting": "[2]; [6]", "value": 4.0}, {"measurement": "Serum PFAS level, 75 percentile", "setting": "[2]; [6]", "value": 11}, {"measurement": "Serum PFAS level, Max", "setting": "[2]; [6]", "value": 14}, {"measurement": "Serum PFAS level, Median", "setting": "[2]; [6]", "value": 6.5}, {"measurement": "Serum PFAS level, Min", "setting": "[2]; [6]", "value": 1.8}, {"measurement": "Serum PFAS level, 25 percentile", "setting": "[2]; [7]", "value": 4.4}, {"measurement": "Serum PFAS level, 75 percentile", "setting": "[2]; [7]", "value": 9.9}, {"measurement": "Serum PFAS level, Max", "setting": "[2]; [7]", "value": 13}, {"measurement": "Serum PFAS level, Median", "setting": "[2]; [7]", "value": 6.2}, {"measurement": "Serum PFAS level, Min", "setting": "[2]; [7]", "value": 1.9}, {"measurement": "Serum level in the first samples, median (range)", "setting": "[2]; all 26 airport employees", "value": "6.9 (1.4–17) ng/mL"}, {"measurement": "PFAS in first serum sample, median (range)", "setting": "[2]; employees participated in first blood sampling and repeated blood and urine sampling, N=17", "value": "7.6 (3.6–17) ng/mL"}, {"measurement": "PFAS in first serum sample, median (range)", "setting": "[2]; employees participated in first blood sampling only, N=9, 11-14 d after end of exposure", "value": "3.5 (1.4–11) ng/mL"}, {"measurement": "Serum level, median", "setting": "[2]; exposed employees 5 months after exposure ceased", "value": 6.22, "unit": "ng/mL"}, {"measurement": "Initial serum PFAS level, max", "setting": "[2]; females (N=7)", "value": 15, "unit": "ng/mL"}, {"measurement": "Initial serum PFAS level, median", "setting": "[2]; females (N=7)", "value": 5.1, "unit": "ng/mL"}, {"measurement": "Initial serum PFAS level, min", "setting": "[2]; females (N=7)", "value": 3.5, "unit": "ng/mL"}, {"measurement": "Relative composition of PFAS in serum, molar concentration basis", "setting": "[2]; [8]", "value": 7.3, "unit": "%"}, {"measurement": "Relative composition of PFAS in serum, weight basis", "setting": "[2]; [8]", "value": 6.3, "unit": "%"}, {"measurement": "Initial serum PFAS level, Max", "setting": "[2]; males (N=19)", "value": 17, "unit": "ng/mL"}, {"measurement": "Initial serum PFAS level, Min", "setting": "[2]; males (N=19)", "value": 1.4, "unit": "ng/mL"}, {"measurement": "Initial serum PFAS level, median", "setting": "[2]; males (N=19)", "value": 7.2, "unit": "ng/mL"}, {"measurement": "Serum concentration, molar basis", "setting": "[2]; [9]", "value": 0.020}, {"measurement": "Serum concentration, weight basis", "setting": "[2]; [9]", "value": 6.9}, {"measurement": "Serum level, median (range)", "setting": "[2]; second to fifth samplings, 17 airport employees", "value": "6.5 (1.8–14) ng/mL"}]}]}
